Assay results reported in ChEMBL document CHEMBL3885881, “DrugMatrix”.

Organism: Rattus norvegicus
Assay: DrugMatrix - Regimen: Daily Repeat
Format: toxicity, organism-based, Sprague-Dawley
Parameters: regimen Daily Repeat, gender Male, age 6-8 weeks
Settings: in vivo, po, route oral GAVAGE, vehicle 100 % WATER; for ABSOLUTE BASOPHIL / ABSOLUTE EOSINOPHIL / ABSOLUTE LYMPHOCYTE / ABSOLUTE MONOCYTE / ABSOLUTE SEGMENTED NEUTROPHIL / BASOPHIL / EOSINOPHIL / ERYTHROCYTE COUNT / HEMATOCRIT / HEMOGLOBIN / LEUKOCYTE COUNT / LYMPHOCYTE / MEAN CORPUSCULAR HEMOGLOBIN / MEAN CORPUSCULAR HEMOGLOBIN CONCENTRATION / MEAN CORPUSCULAR VOLUME / MONOCYTE / NEUTROPHIL / NUCLEATED RED BLOOD CELLS / PLATELET COUNT: tissue Blood; for ALANINE AMINOTRANSFERASE / ALBUMIN / ALKALINE PHOSPHATASE / ASPARTATE AMINOTRANSFERASE / BLOOD UREA NITROGEN / CARBON DIOXIDE / CHLORIDE / CHOLESTEROL / CREATINE PHOSPHOKINASE / CREATININE / GLUCOSE / LACTATE DEHYDROGENASE / LIPASE / PHOSPHORUS / POTASSIUM / SODIUM / TOTAL BILIRUBIN / TOTAL PROTEIN / URIC ACID: tissue Plasma
[1] = 300 mg/kg, 72 h, dose level Low, time 3 day
[2] = 300 mg/kg, 120 h, dose level Low, time 5 day
[3] = 1100 mg/kg, 72 h, dose level High, time 3 day
[4] = 1100 mg/kg, 120 h, dose level High, time 5 day

In the case of `O=C(O)CCNC(=O)c1ccc(/N=N/c2ccc(O)c(C(=O)O)c2)cc1` [BALSALAZIDE], the “ABSOLUTE BASOPHIL” value [1] is reported as 0 CELLS/uL, the “ABSOLUTE EOSINOPHIL” value [1] is reported as 0 CELLS/uL and the “ABSOLUTE LYMPHOCYTE” value [1] is reported as 11801 CELLS/uL. The “ABSOLUTE MONOCYTE” value [1] was 66 CELLS/uL, the “ABSOLUTE SEGMENTED NEUTROPHIL” value [1] was 833 CELLS/uL and the BASOPHIL [1] was 0%. For the same compound, the EOSINOPHIL [1] was 0%, the “ERYTHROCYTE COUNT” value [1] was 5.38 x10E6/uL and the HEMATOCRIT [1] was 33.73%. The HEMOGLOBIN [1] was 13.5 G/DL, the “LEUKOCYTE COUNT” value [1] was 12.7 x10E3/uL and the LYMPHOCYTE [1] was 93.33%. The “MEAN CORPUSCULAR HEMOGLOBIN” value [1] was 25.13 pg, the “MEAN CORPUSCULAR HEMOGLOBIN CONCENTRATION” value [1] was 40.03 G/DL and the “MEAN CORPUSCULAR VOLUME” value [1] was 62.7 fL. The MONOCYTE [1] was 0.33%, the NEUTROPHIL [1] was 6.33% and the “NUCLEATED RED BLOOD CELLS” value [1] was 0 /100WBC. The “PLATELET COUNT” value [1] was 922 x10E3/uL, the “ALANINE AMINOTRANSFERASE” value [1] was 56.33 u/L and the ALBUMIN [1] was 4.23 G/DL. For the same compound, the “ALKALINE PHOSPHATASE” value [1] was 481.33 u/L, the “ASPARTATE AMINOTRANSFERASE” value [1] was 94 u/L and the “BLOOD UREA NITROGEN” value [1] was 17.33 mg/dL. The “CARBON DIOXIDE” value [1] was 29 mmol/L, the CHLORIDE [1] was 103.67 MEQ/L and the CHOLESTEROL [1] was 73.33 mg/dL. For the same compound, the “CREATINE PHOSPHOKINASE” value [1] was 306.67 u/L, the CREATININE [1] was 0.22 mg/dL and the GLUCOSE [1] was 159.33 mg/dL. The “LACTATE DEHYDROGENASE” value [1] was 328 u/L, the LIPASE [1] was 8 u/L and the PHOSPHORUS [1] was 13.87 mg/dL. The POTASSIUM [1] was 6.3 MEQ/L, the SODIUM [1] was 144.33 MEQ/L and the “TOTAL BILIRUBIN” value [1] was 0.2 mg/dL. The “TOTAL PROTEIN” value [1] was 5.93 G/DL, the “URIC ACID” value [1] was 1.5 mg/dL and the “ABSOLUTE BASOPHIL” value [2] was 0 CELLS/uL. The “ABSOLUTE EOSINOPHIL” value [2] was 53.33 CELLS/uL, the “ABSOLUTE LYMPHOCYTE” value [2] was 8092.67 CELLS/uL and the “ABSOLUTE MONOCYTE” value [2] was 26.67 CELLS/uL. For the same compound, the “ABSOLUTE SEGMENTED NEUTROPHIL” value [2] was 694 CELLS/uL, the BASOPHIL [2] was 0% and the EOSINOPHIL [2] was 0.67%. For the same compound, the “ERYTHROCYTE COUNT” value [2] was 5.99 x10E6/uL, the HEMATOCRIT [2] was 38.2% and the HEMOGLOBIN [2] was 14.6 G/DL. The “LEUKOCYTE COUNT” value [2] was 8.87 x10E3/uL, the LYMPHOCYTE [2] was 91% and the “MEAN CORPUSCULAR HEMOGLOBIN” value [2] was 24.43 pg. For the same compound, the “MEAN CORPUSCULAR HEMOGLOBIN CONCENTRATION” value [2] was 38.2 G/DL, the “MEAN CORPUSCULAR VOLUME” value [2] was 63.9 fL and the MONOCYTE [2] was 0.33%. The NEUTROPHIL [2] was 8%, the “NUCLEATED RED BLOOD CELLS” value [2] was 0 /100WBC and the “PLATELET COUNT” value [2] was 965 x10E3/uL. The “ALANINE AMINOTRANSFERASE” value [2] was 61.67 u/L, the ALBUMIN [2] was 4.17 G/DL and the “ALKALINE PHOSPHATASE” value [2] was 384.67 u/L. The “ASPARTATE AMINOTRANSFERASE” value [2] was 83.67 u/L, the “BLOOD UREA NITROGEN” value [2] was 17.67 mg/dL and the “CARBON DIOXIDE” value [2] was 28.67 mmol/L. The CHLORIDE [2] was 102 MEQ/L, the CHOLESTEROL [2] was 63.33 mg/dL and the “CREATINE PHOSPHOKINASE” value [2] was 238.33 u/L. For the same compound, the CREATININE [2] was 0.22 mg/dL, the GLUCOSE [2] was 182.67 mg/dL and the “LACTATE DEHYDROGENASE” value [2] was 142.67 u/L. It also gave an LIPASE [2] of 12.33 u/L, a PHOSPHORUS [2] of 14.5 mg/dL and a POTASSIUM [2] of 6.43 MEQ/L. For the same compound, the SODIUM [2] was 146.73 MEQ/L, the “TOTAL BILIRUBIN” value [2] was 0.2 mg/dL and the “TOTAL PROTEIN” value [2] was 6.07 G/DL. For the same compound, the “URIC ACID” value [2] was 2.17 mg/dL, the “ABSOLUTE BASOPHIL” value [3] was 0 CELLS/uL and the “ABSOLUTE EOSINOPHIL” value [3] was 0 CELLS/uL. The “ABSOLUTE LYMPHOCYTE” value [3] was 7596 CELLS/uL, the “ABSOLUTE MONOCYTE” value [3] was 55 CELLS/uL and the “ABSOLUTE SEGMENTED NEUTROPHIL” value [3] was 682.33 CELLS/uL. For the same compound, the BASOPHIL [3] was 0%, the EOSINOPHIL [3] was 0% and the “ERYTHROCYTE COUNT” value [3] was 5.29 x10E6/uL. The HEMATOCRIT [3] was 33.57%, the HEMOGLOBIN [3] was 13.27 G/DL and the “LEUKOCYTE COUNT” value [3] was 8.33 x10E3/uL. The LYMPHOCYTE [3] was 91.33%, the “MEAN CORPUSCULAR HEMOGLOBIN” value [3] was 25.13 pg and the “MEAN CORPUSCULAR HEMOGLOBIN CONCENTRATION” value [3] was 39.5 G/DL. The “MEAN CORPUSCULAR VOLUME” value [3] was 63.47 fL, the MONOCYTE [3] was 0.67% and the NEUTROPHIL [3] was 8%. The “NUCLEATED RED BLOOD CELLS” value [3] was 0 /100WBC, the “PLATELET COUNT” value [3] was 833.67 x10E3/uL and the “ALANINE AMINOTRANSFERASE” value [3] was 62.67 u/L. For the same compound, the ALBUMIN [3] was 4.33 G/DL, the “ALKALINE PHOSPHATASE” value [3] was 344.33 u/L and the “ASPARTATE AMINOTRANSFERASE” value [3] was 98.67 u/L. The “BLOOD UREA NITROGEN” value [3] was 15 mg/dL, the “CARBON DIOXIDE” value [3] was 32.67 mmol/L and the CHLORIDE [3] was 101.67 MEQ/L. The CHOLESTEROL [3] was 84.33 mg/dL, the “CREATINE PHOSPHOKINASE” value [3] was 333 u/L and the CREATININE [3] was 0.49 mg/dL. The GLUCOSE [3] was 160.33 mg/dL, the “LACTATE DEHYDROGENASE” value [3] was 159 u/L and the LIPASE [3] was 12 u/L. For the same compound, the PHOSPHORUS [3] was 11.9 mg/dL, the POTASSIUM [3] was 5.97 MEQ/L and the SODIUM [3] was 145.53 MEQ/L. The “TOTAL BILIRUBIN” value [3] was 0.27 mg/dL, the “TOTAL PROTEIN” value [3] was 6.1 G/DL and the “URIC ACID” value [3] was 0.67 mg/dL. The “ABSOLUTE BASOPHIL” value [4] was 0 CELLS/uL, the “ABSOLUTE EOSINOPHIL” value [4] was 0 CELLS/uL and the “ABSOLUTE LYMPHOCYTE” value [4] was 12609 CELLS/uL. For the same compound, the “ABSOLUTE MONOCYTE” value [4] was 37.67 CELLS/uL, the “ABSOLUTE SEGMENTED NEUTROPHIL” value [4] was 1253.33 CELLS/uL and the BASOPHIL [4] was 0%. For the same compound, the EOSINOPHIL [4] was 0%, the “ERYTHROCYTE COUNT” value [4] was 5.68 x10E6/uL and the HEMATOCRIT [4] was 35.73%. The HEMOGLOBIN [4] was 14.1 G/DL, the “LEUKOCYTE COUNT” value [4] was 13.9 x10E3/uL and the LYMPHOCYTE [4] was 91.33%. For the same compound, the “MEAN CORPUSCULAR HEMOGLOBIN” value [4] was 24.87 pg, the “MEAN CORPUSCULAR HEMOGLOBIN CONCENTRATION” value [4] was 39.47 G/DL and the “MEAN CORPUSCULAR VOLUME” value [4] was 62.93 fL. The MONOCYTE [4] was 0.33%, the NEUTROPHIL [4] was 8.33% and the “NUCLEATED RED BLOOD CELLS” value [4] was 0 /100WBC. For the same compound, the “PLATELET COUNT” value [4] was 1338 x10E3/uL, the “ALANINE AMINOTRANSFERASE” value [4] was 55.33 u/L and the ALBUMIN [4] was 4 G/DL. For the same compound, the “ALKALINE PHOSPHATASE” value [4] was 346.67 u/L, the “ASPARTATE AMINOTRANSFERASE” value [4] was 106 u/L and the “BLOOD UREA NITROGEN” value [4] was 17.67 mg/dL. The “CARBON DIOXIDE” value [4] was 27 mmol/L, the CHLORIDE [4] was 104 MEQ/L and the CHOLESTEROL [4] was 55.33 mg/dL. The “CREATINE PHOSPHOKINASE” value [4] was 414 u/L, the CREATININE [4] was 0.14 mg/dL and the GLUCOSE [4] was 163.67 mg/dL. For the same compound, the “LACTATE DEHYDROGENASE” value [4] was 452.33 u/L, the LIPASE [4] was 10 u/L and the PHOSPHORUS [4] was 12.77 mg/dL. The POTASSIUM [4] was 6.29 MEQ/L, the SODIUM [4] was 144.53 MEQ/L and the “TOTAL BILIRUBIN” value [4] was 0.17 mg/dL. For the same compound, the “TOTAL PROTEIN” value [4] was 5.57 G/DL and the “URIC ACID” value [4] was 1.53 mg/dL.
